Data as given in patent US4102917A, “Substituted phenyl naphthalenesulfonic acids” (American Cyanamid Company, priority 1977, dated 1978).
Counter-ions that a name gives are not always drawn.

Legend:
complement system = details: literature; cited from earlier work
[1] = system: hereditary angioneurotic edema; details: literature; cited from earlier work
[2] = system: late components of human complement (C3-C9); experiment: Test, Code 035 (C3-C9 inhibitor), lysis of EAC 142; type: cell-based; details: activity in wells, two-fold serial dilution assay; higher well number indicates higher activity; N=Negative
From the text: (§1) An active inhibitor protects C2 from C1 and C4; (ii) Test, Code 035 (C3-C9 inhibitor) -- This test determines the ability of the late components of human complement (C3-C9) to lyse EAC 142 in the presence of appropriate dilutions of the test compound. An active inhibitor protects EAC 142 from lysis by human C3-C9; (iii) Test, Code 036 (C-Shunt inhibitor) -- In this test human erythrocytes rendered fragile are lysed in autologous serum via the shunt pathway activated by cobra venom factor in the presence of appropriate dilutions of the test compound. Inhibition of the shunt pathway results in failure of lysis; (iv) Forssman Vasculitis Test -- Here, the well known complement dependent lesion, Forssman vasculitis, is produced in guinea pigs by intradermal injection of rabbit anti-Forssman antiserum. […]

whole complement = experiment: Complement Level Reduction Test (in vivo activity, guinea pig); details: 200 mg/kg
From the text: An active inhibitor protects C2 from C1 and C4; (ii) Test, Code 035 (C3-C9 inhibitor) -- This test determines the ability of the late components of human complement (C3-C9) to lyse EAC 142 in the presence of appropriate dilutions of the test compound. An active inhibitor protects EAC 142 from lysis by human C3-C9; (iii) Test, Code 036 (C-Shunt inhibitor) -- In this test human erythrocytes rendered fragile are lysed in autologous serum via the shunt pathway activated by cobra venom factor in the presence of appropriate dilutions of the test compound. Inhibition of the shunt pathway results in failure of lysis; (iv) Forssman Vasculitis Test -- Here, the well known complement dependent lesion, Forssman vasculitis, is produced in guinea pigs by intradermal injection of rabbit anti-Forssman antiserum. The lesion is measured in terms of diameter, edema and hemorrhage and the extent to which a combined index of these is inhibited by prior intraperitoneal injection of the test compound at 200 mg/kg is then reported, unless otherwise stated; (v) Forssman Shock Test -- Lethal shock is produced in guinea pigs by an i.v. injection of anti-Forssman antiserum and the harmonic mean death time of treated guinea pigs is compared with that of simultaneous controls; (vi) Complement Level Reduction Test -- In this test, the above dosed guinea pigs, or others, are bled for serum and the complement level is determined in undiluted serum by the capillary tube method of U.S. Pat. No. 3,876,376 and compared to undosed control guinea pigs; and (vii) Cap 50 Test -- Here, appropriate amounts of the test compound are added to a pool of guinea pig serum in vitro, after which the undiluted serum capillary tube assay referred to above is run. The concentration of compound inhibiting 50 % is reported.
With reference to Table I, guinea pigs weighing about 300 g were dosed intravenously (i.v.) or intraperitoneally (i.p.) with 200 mg/kg of the test compound dissolved in saline and adjusted to pH 7-8. […] The serum was tested for whole complement using the capillary tube assay. Percent inhibition was calculated by comparison with simultaneous controls. The results appear in Table I together with results of tests, code 026, 035, 036, Cap 50, % inhibition and Forssman shock.

human serum = details: in vitro and in vivo, literature; cited from earlier work
human C1 = experiment: Test, Code 026 (C1 inhibitor); type: biochemical; details: activity in wells, two-fold serial dilution assay; higher well number indicates higher activity
From the text: as §1

shunt pathway = experiment: Test, Code 036 (C-Shunt inhibitor), lysis of human erythrocytes via shunt pathway activated by cobra venom factor; type: cell-based; details: activity in wells, two-fold serial dilution assay; higher well number indicates higher activity
From the text: as §1

## Cc1ccc(C(=O)Nc2ccc(S(=O)(=O)O)c3cc(S(=O)(=O)O)cc(S(=O)(=O)O)c23)cc1NC(=O)c1cccc(NC(=O)Nc2cccc(C(=O)Nc3cc(C(=O)Nc4ccc(S(=O)(=O)O)c5cc(S(=O)(=O)O)cc(S(=O)(=O)O)c45)ccc3C)c2)c1 [Suramin]
Complement system
  anticomplementary effect / complement inhibition: competitive inhibitor of the complement system
[1]
  use in the treatment of hereditary angioneurotic edema: used with success in the treatment of hereditary angioneurotic edema

## O=C(Nc1cc(S(=O)(=O)[O-])cc2cc(S(=O)(=O)[O-])cc(S(=O)(=O)[O-])c12)c1cc(NC(=S)Nc2cc(S(=O)(=O)[O-])cc3cc(S(=O)(=O)[O-])cc(S(=O)(=O)[O-])c23)cc(C(=O)Nc2cc(S(=O)(=O)[O-])cc3cc(S(=O)(=O)[O-])cc(S(=O)(=O)[O-])c23)c1.[Na+].[Na+].[Na+].[Na+].[Na+].[Na+].[Na+].[Na+].[Na+] [8-{3-[3,5-Bis(3,6,8-trisulfo-1-naphthylcarbamoyl)phenyl] -2-thioureido}-1,3,6-naphthalenetrisulfonic acid nonasodium salt]
[2]
  C-Late 035 Wells: +1 Wells
Whole complement; i.p., 30 min
  In Vivo Activity (Guinea Pig) % Inhibition, Intraperitoneal, 30 min: -50%
Whole complement; i.p., 60 min
  In Vivo Activity (Guinea Pig) % Inhibition, Intraperitoneal, 60 min: -57%
Whole complement; i.p., 120 min
  In Vivo Activity (Guinea Pig) % Inhibition, Intraperitoneal, 120 min: -74%
Whole complement; i.v., 2 min
  In Vivo Activity (Guinea Pig) % Inhibition, Intravenous, 2 min: -97%
Whole complement; i.v., 30 min
  In Vivo Activity (Guinea Pig) % Inhibition, Intravenous, 30 min: -79%
Whole complement; i.v., 120 min
  In Vivo Activity (Guinea Pig) % Inhibition, Intravenous, 120 min: -58%

## pentosan-poly-sulfoester
Human serum
  anticomplementary activity, reduction in the total hemolytic complement activity: anticomplementary activity on human serum both in vitro and in vivo

## heparin
Complement system
  anticomplementary effect / complement inhibition: reported to have an anticomplementary effect

## Nc1ccc2cc(S(=O)(=O)O)cc(O)c2c1N=Nc1ccc(NC(=O)Nc2ccc(N=Nc3c(N)ccc4cc(S(=O)(=O)O)cc(O)c34)c(S(=O)(=O)O)c2)cc1S(=O)(=O)O [chlorazol fast pink, 3,3'-ureylenebis-[6-(2-amino-8-hydroxy-6-sulfo-1-naphthylazo)]benzenesulfonic acid, tetrasodium salt]
Complement system
  anticomplementary effect / complement inhibition: reported to have an anticomplementary effect

## NCCCCCC(=O)O [epsilon-aminocaproic acid]
[1]
  use in the treatment of hereditary angioneurotic edema: used with success in the treatment of hereditary angioneurotic edema

## O=C(O)c1cc(NC(=O)c2cc(NC(=S)Nc3cc(S(=O)(=O)O)cc4cc(S(=O)(=O)O)cc(S(=O)(=O)O)c34)cc(C(=O)Nc3cc(C(=O)O)cc(C(=O)O)c3)c2)cc(C(=O)O)c1 [5,5'-{{5-[2-Thio-3-(3,6,8-trisulfo-1-naphthyl)ureido]-1,3-phenylene}bis(carbonylimino)}diisophthalic acid heptasodium salt]
Human C1
  C1 026 Wells: +5 Wells
[2]
  C-Late 035 Wells: N
Shunt pathway
  Shunt Inhibition 036 Wells: +1 Wells

## NC[C@H]1CC[C@H](C(=O)O)CC1 [tranexamic acid]
[1]
  use in the treatment of hereditary angioneurotic edema: used with success in the treatment of hereditary angioneurotic edema
